Experimental data: ChEMBL document CHEMBL4673296 (J Med Chem, 2020)
Blank lines part the entries; values can stand above or below the compound they belong to. Active and inactive are the calls of the source. The rule behind the calls is not given here.

How the values were obtained:
[1] = target: T1, Serine/threonine-protein kinase ULK1 (Homo sapiens, UniProt O75385); assay: Inhibition of ULK1 (unknown origin) expressed in HEK293T cells incubated for 2 hrs by NanoBRET assay; format: cell-based
T1 sequence (O75385 whole entry): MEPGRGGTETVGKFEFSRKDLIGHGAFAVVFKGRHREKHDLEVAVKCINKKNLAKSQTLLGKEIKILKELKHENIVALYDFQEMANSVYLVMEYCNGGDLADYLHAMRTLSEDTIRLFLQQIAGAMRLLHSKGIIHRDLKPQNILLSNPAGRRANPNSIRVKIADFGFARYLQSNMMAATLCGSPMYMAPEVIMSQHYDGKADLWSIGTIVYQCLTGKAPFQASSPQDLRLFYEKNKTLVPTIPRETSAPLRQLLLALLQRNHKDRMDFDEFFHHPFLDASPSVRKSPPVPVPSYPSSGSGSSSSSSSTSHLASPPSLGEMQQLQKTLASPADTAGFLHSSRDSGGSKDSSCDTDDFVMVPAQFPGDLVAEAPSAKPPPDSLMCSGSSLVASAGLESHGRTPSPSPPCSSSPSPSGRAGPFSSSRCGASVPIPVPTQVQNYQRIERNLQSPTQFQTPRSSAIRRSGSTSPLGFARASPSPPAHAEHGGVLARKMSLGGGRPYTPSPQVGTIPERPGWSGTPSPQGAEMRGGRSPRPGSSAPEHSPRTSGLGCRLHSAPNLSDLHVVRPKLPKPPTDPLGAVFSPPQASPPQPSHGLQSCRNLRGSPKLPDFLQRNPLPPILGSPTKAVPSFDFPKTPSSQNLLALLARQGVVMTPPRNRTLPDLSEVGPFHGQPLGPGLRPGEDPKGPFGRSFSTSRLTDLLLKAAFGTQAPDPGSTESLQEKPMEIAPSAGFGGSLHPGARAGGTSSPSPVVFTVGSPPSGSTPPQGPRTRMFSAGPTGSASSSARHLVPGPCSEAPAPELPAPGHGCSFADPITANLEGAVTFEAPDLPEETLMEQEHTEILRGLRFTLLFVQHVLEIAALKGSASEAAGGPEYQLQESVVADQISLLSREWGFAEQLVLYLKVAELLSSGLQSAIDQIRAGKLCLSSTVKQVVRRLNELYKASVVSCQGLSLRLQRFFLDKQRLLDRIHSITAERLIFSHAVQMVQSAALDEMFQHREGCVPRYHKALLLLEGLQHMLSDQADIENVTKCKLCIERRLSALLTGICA

[2] = target: T1, Serine/threonine-protein kinase ULK1; assay: Inhibition of recombinant human ULK1 (1-649) expressed in Sf9 cells using myelin basic protein as substrate by ADP-glo assay
[3] = Apparent permeability of the compound across apical side to basolateral side in human Caco2 cells; format: ADME, cell-based; settings: Caco-2
[4] = Apparent permeability of the compound across basolateral side to apical side in human Caco2 cells; format: ADME, cell-based; settings: Caco-2
[5] = target: T2, Serine/threonine-protein kinase ULK1 (Homo sapiens) (UniProt O75385); assay: Inhibition of Myc-tagged ULK1 (unknown origin) expressed in HEK293T cells cotransfected with wild-type Flag tagged Beclin-1 assessed as decrease in pBeclin1 Ser15 at 10 uM measured after 1 hr by Western blot analysis; format: cell-based
T2 sequence (whole entry): T1 sequence (O75385 whole entry)

[6] = target: T2, Serine/threonine-protein kinase ULK1 (Homo sapiens); assay: Inhibition of Myc-tagged ULK1 (unknown origin) expressed in HEK293T cells cotransfected with wild-type Flag tagged Vps34 assessed as decrease in pVPS34 Ser249 at 10 uM measured after 1 hr by Western blot analysis relative to control; format: cell-based
[7] = target: T3, Serine/threonine-protein kinase ULK2 (Homo sapiens, UniProt Q8IYT8); assay: Inhibition of ULK2 (unknown origin) expressed in HEK293T cells incubated for 2 hrs by NanoBRET assay; format: cell-based
T3 sequence (Q8IYT8 whole entry): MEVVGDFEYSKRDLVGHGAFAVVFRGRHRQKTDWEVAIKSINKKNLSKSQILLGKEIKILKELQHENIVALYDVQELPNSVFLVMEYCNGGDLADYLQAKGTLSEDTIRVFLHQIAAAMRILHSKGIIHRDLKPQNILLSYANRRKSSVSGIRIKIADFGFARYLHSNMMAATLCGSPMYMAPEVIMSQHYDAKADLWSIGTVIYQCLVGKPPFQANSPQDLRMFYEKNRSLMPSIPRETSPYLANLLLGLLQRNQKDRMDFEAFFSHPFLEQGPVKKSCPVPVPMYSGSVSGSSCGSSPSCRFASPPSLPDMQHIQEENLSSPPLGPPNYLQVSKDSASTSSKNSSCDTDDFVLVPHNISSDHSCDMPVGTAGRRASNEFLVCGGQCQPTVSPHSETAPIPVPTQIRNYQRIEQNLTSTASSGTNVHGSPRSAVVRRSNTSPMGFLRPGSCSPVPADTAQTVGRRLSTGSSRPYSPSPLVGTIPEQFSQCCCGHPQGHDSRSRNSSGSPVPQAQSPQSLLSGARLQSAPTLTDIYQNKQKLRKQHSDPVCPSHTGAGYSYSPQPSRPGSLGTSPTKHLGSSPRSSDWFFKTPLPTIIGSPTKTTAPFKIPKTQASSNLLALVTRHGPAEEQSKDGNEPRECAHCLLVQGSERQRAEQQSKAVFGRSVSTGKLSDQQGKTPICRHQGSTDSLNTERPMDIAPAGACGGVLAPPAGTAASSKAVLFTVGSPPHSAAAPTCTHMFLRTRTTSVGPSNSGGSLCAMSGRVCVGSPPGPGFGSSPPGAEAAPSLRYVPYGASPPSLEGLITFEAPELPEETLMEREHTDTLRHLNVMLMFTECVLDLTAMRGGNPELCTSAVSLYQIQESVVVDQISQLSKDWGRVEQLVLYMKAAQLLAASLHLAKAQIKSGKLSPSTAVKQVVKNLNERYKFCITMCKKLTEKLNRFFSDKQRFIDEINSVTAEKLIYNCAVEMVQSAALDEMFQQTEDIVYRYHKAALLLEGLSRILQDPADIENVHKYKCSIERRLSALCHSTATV

[8] = target: T3, Serine/threonine-protein kinase ULK2; assay: Inhibition of recombinant human ULK2 (1 to 478 residues) expressed in Sf9 cells using myelin basic protein as substrate by ADP-glo assay
[9] = Efflux ratio of apparent permeability from basolateral side to apical side over apical side to basolateral side in human Caco2 cells; format: ADME, cell-based; settings: Caco-2
[10] = test system: MDA-MB-468; assay: cells; settings: Homo sapiens, MDA-MB-468, 72 h
Description: Cytotoxicity against human MDA-MB-468 cells measured after 72 hrs by Celltiter-Glo assay

[11] = test system: MDA-MB-468; assay: Reduction in autophagosome accumulation in human MDA-MB-468 cells at 10 uM by transmission electron microscopic analysis; format: functional, cell-based
[12] = Inhibition of starvation-induced autophagic flux in human MDA-MB-468 cells expressing tandem-labelled mCherryEGFP-LC3 chimeric protein at 10 uM measured after 18 hrs in EBSS media by flow cytometry (Rvb >90%); format: functional

Compound: FC(F)(F)c1cnc(Nc2ccc3c(c2)OCO3)nc1NC1CC1
IC50 [1]: > 10000 nM | IC50 [2]: 21 nM

Compound: FC1(F)Oc2ccc(Nc3ncc(C(F)(F)F)c(NC4CC4)n3)cc2O1
IC50 [1]: > 10000 nM | IC50 [2]: 42 nM

Compound: FC(F)(F)c1cnc(Nc2ccc3[nH]ccc3c2)nc1NC1CC1
IC50 [1]: 9840 nM | IC50 [2]: 23 nM

Compound: Oc1ccccc1Nc1ncc(C(F)(F)F)c(NC2CC2)n1
Papp A→B [3]: > 10 ×10⁻⁶ cm/s | Papp B→A [4]: > 10 ×10⁻⁶ cm/s

Compound: COc1cncc(Nc2ncc(C(F)(F)F)c(NC3CC3)n2)c1
inhibition [5]: Active | Papp A→B [3]: > 10 ×10⁻⁶ cm/s | inhibition [6]: 70% | Papp B→A [4]: > 10 ×10⁻⁶ cm/s | IC50 [7]: 1890 nM | IC50 [8]: 695 nM

Compound: CCN1CCOc2cc(Nc3ncc(C(F)(F)F)c(NC4CC4)n3)cnc21
IC50 [1]: 1210 nM | IC50 [2]: 31 nM

Compound: CNc1nc(Nc2cnc3[nH]ccc3c2)ncc1C(F)(F)F
IC50 [1]: 3630 nM | IC50 [2]: 34 nM

Compound: FC(F)(F)c1cnc(Nc2cnc3ccccc3c2)nc1NC1CC1
IC50 [1]: > 10000 nM | IC50 [2]: 16 nM

Compound: FC(F)(F)c1cnc(Nc2ccc3c(c2)OCCO3)nc1NC1CC1
IC50 [1]: 4480 nM | IC50 [2]: 14 nM

Compound: O=C1CCCc2cc(Nc3ncc(C(F)(F)F)c(NC4CC4)n3)ccc21
IC50 [1]: 1360 nM | IC50 [2]: 3 nM

Compound: FC(F)(F)c1cnc(Nc2ccc3nn[nH]c3c2)nc1NC1CC1
IC50 [1]: 1170 nM | IC50 [2]: 6 nM

Compound: Nc1nc(Nc2ccc3c(c2)OCO3)ncc1C(F)(F)F
IC50 [1]: > 10000 nM | IC50 [2]: 230 nM

Compound: Nc1ccc(Nc2ncc(C(F)(F)F)c(NC3CC3)n2)cc1
inhibition [5]: Active | Papp A→B [3]: > 10 ×10⁻⁶ cm/s | IC50 [1]: 679 nM | inhibition [6]: 70% | IC50 [2]: 20 nM | Papp B→A [4]: > 10 ×10⁻⁶ cm/s | IC50 [7]: 1690 nM | IC50 [8]: 1330 nM | efflux ratio [9]: < 2

Compound: CNC(=O)c1ccccc1Oc1nc(Nc2cc(OC)c(OC)c(OC)c2)ncc1Br
IC50 [7]: 4580 nM | IC50 [8]: 2450 nM | inhibition [11]: Active | inhibition at 10 µM [12]: 10%

Compound: O=C(C1CC1)N(C(=O)C1CC1)c1ccc(Nc2ncc(C(F)(F)F)c(NC3CC3)n2)cc1
IC50 [1]: 1710 nM | IC50 [2]: 30 nM

More lines, now with the values ahead:

IC50 [1]: 1330 nM | IC50 [2]: 13 nM
Compound: O=C(Nc1ccc(Nc2ncc(C(F)(F)F)c(NC3CC3)n2)cc1)C1CC1

IC50 [1]: > 10000 nM | IC50 [2]: 17 nM
Compound: FC(F)(F)c1cnc(Nc2cnc3[nH]ccc3c2)nc1NC1CCC1

IC50 [1]: 1930 nM | IC50 [2]: 29 nM
Compound: FC(F)(F)c1cnc(Nc2cnc3[nH]ccc3c2)nc1NC1CC1

inhibition [5]: Active | Papp A→B [3]: > 10 ×10⁻⁶ cm/s | inhibition [6]: 70% | Papp B→A [4]: > 10 ×10⁻⁶ cm/s | IC50 [7]: 703 nM | IC50 [8]: 720 nM
Compound: FC(F)(F)c1cnc(Nc2ccc3nc[nH]c3c2)nc1NC1CC1

inhibition [5]: Active | Papp A→B [3]: > 10 ×10⁻⁶ cm/s | IC50 [1]: 739 nM | inhibition [6]: 70% | IC50 [2]: 5 nM | Papp B→A [4]: > 10 ×10⁻⁶ cm/s | IC50 [7]: 1650 nM | IC50 [8]: 714 nM | efflux ratio [9]: < 2
Compound: FC(F)(F)c1cnc(Nc2ccc3ncccc3c2)nc1NC1CC1

inhibition [5]: Active | Papp A→B [3]: > 10 ×10⁻⁶ cm/s | IC50 [1]: 1020 nM | inhibition [6]: 70% | IC50 [2]: 19 nM | Papp B→A [4]: > 10 ×10⁻⁶ cm/s | IC50 [7]: 4260 nM | IC50 [8]: 1190 nM | efflux ratio [9]: < 2
Compound: FC(F)(F)c1cnc(Nc2ccc3ncoc3c2)nc1NC1CC1

IC50 [1]: 1610 nM | IC50 [2]: 40 nM
Compound: FC(F)(F)c1cnc(Nc2ccnnc2)nc1NC1CC1

IC50 [10]: 7600 nM
Compound: NC(=O)c1cccc2cn(-c3ccc([C@@H]4CCCNC4)cc3)nc12 [NIRAPARIB]

Papp A→B [3]: > 10 ×10⁻⁶ cm/s | IC50 [1]: 1600 nM | IC50 [2]: 7 nM | Papp B→A [4]: > 10 ×10⁻⁶ cm/s | efflux ratio [9]: < 2
Compound: FC(F)(F)c1cnc(Nc2ccc3c(c2)OCCCO3)nc1NC1CC1
